How the values were obtained:
in vivo [1] = details: dog, po, 5 mg/kg
in vivo [2] = details: dog, plasma, po, 5 mg/kg
in vivo [3] = details: dog, po, 5 mg/kg; remark: listed apart in the source
in vivo [4] = details: dog, po, 5 mg/kg; remark: listed apart in the source
in vivo [5] = details: dog, plasma, po, 5 mg/kg; remark: listed apart in the source

| Compound | Tmax (in vivo [1]) [h] | AUC (in vivo [2]) [ng·h/mL] | concentration at 24 h (in vivo [3]) [ng/mL] | half-life (in vivo [4]) [h] | Cmax (in vivo [5]) [ng/mL] |
| --- | --- | --- | --- | --- | --- |
| CS(=O)(=O)c1ccc(-n2nc(C(F)F)cc2-c2ccccc2)nc1 | 1.5 |  |  | 26 | 1090 |
| CS(=O)(=O)c1ccc(-n2nc(C(F)F)cc2-c2ccc(F)cc2)nc1 | 1.3 | 7650 | 329 | 17 | 509 |
| Cc1ccc(-c2cc(C(F)(F)F)nn2-c2ccc(S(N)(=O)=O)cc2)cc1 [CELECOXIB] |  | 3100 |  | 3.3 | 540 |

Second part, the compound after the results:

| Tmax (in vivo [1]) [h] | AUC (in vivo [2]) [ng·h/mL] | concentration at 24 h (in vivo [3]) [ng/mL] | half-life (in vivo [4]) [h] | Cmax (in vivo [5]) [ng/mL] | Compound |
| --- | --- | --- | --- | --- | --- |
| 0.8 | 4820 | 134 | 17.5 | 540 | CS(=O)(=O)c1ccc(-n2nc(C(F)(F)F)cc2-c2ccc(F)cc2)nc1 |
| 0.8 | 4280 | 77 | 13.1 | 611 | CS(=O)(=O)c1ccc(-n2nc(C(F)(F)F)cc2-c2ccccc2)nc1 |

From ChEMBL document CHEMBL1146718, “Discovery of a potent, selective and orally active canine COX-2 inhibitor, 2-(3-difluoromethyl-5-phenyl-pyrazol-1-yl)-5-methanesulfonyl-pyridine” (Bioorg Med Chem Lett, 2004)
